# Measurements as given in PubChem BioAssay (NCI).
#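 Each compound was tested at five concentrations against cells in 96-well plates for 48 hours. GI50 marks 50% less growth. TGI marks complete inhibition of growth.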
# Experiments:
# Test in all cases: DTP human tumour cell line panel, 48 h
# MDA-MB-435 = system: MDA-MB-435
# UACC-62 melanoma = system: UACC-62 melanoma
# HCT-116 colon = system: HCT-116 colon
# PC-3 prostate = system: PC-3 prostate
# NCI-H522 lung = system: NCI-H522 lung
# SF-268 CNS = system: SF-268 CNS
# OVCAR-4 ovarian = system: OVCAR-4 ovarian
# MOLT-4 leukemia = system: MOLT-4 leukemia
# T-47D breast = system: T-47D breast
# SW-620 colon = system: SW-620 colon
# SR leukemia = system: SR leukemia
# CCRF-CEM leukemia = system: CCRF-CEM leukemia
# UO-31 renal = system: UO-31 renal
# HOP-62 NSCLC = system: HOP-62 NSCLC
# NCI-H460 lung = system: NCI-H460 lung
# 786-0 renal = system: 786-0 renal
# ACHN renal = system: ACHN renal
# HS 578T breast = system: HS 578T breast
# SN12C renal = system: SN12C renal
# SK-OV-3 ovarian = system: SK-OV-3 ovarian
# COLO 205 colon = system: COLO 205 colon
# HT29 colon = system: HT29 colon
# RXF 393 renal = system: RXF 393 renal
# TK-10 renal = system: TK-10 renal
# K-562 leukemia = system: K-562 leukemia
# UACC-257 melanoma = system: UACC-257 melanoma
# SNB-75 CNS = system: SNB-75 CNS
# BT-549 breast = system: BT-549 breast
# MALME-3M melanoma = system: MALME-3M melanoma
# RPMI-8226 leukemia = system: RPMI-8226 leukemia
# OVCAR-8 ovarian = system: OVCAR-8 ovarian
# SF-295 CNS = system: SF-295 CNS
# SK-MEL-28 melanoma = system: SK-MEL-28 melanoma
# NCI-H226 lung = system: NCI-H226 lung
# A549 NSCLC = system: A549 NSCLC
# MCF7 breast = system: MCF7 breast
# KM12 colon = system: KM12 colon
# IGROV1 ovarian = system: IGROV1 ovarian
# HCT-15 colon = system: HCT-15 colon
# A498 renal = system: A498 renal
# HCC-2998 colon = system: HCC-2998 colon
# CAKI-1 renal = system: CAKI-1 renal
# NCI/ADR-RES ovarian = system: NCI/ADR-RES ovarian
# SF-539 CNS = system: SF-539 CNS
# U251 CNS = system: U251 CNS
# NCI-H23 lung = system: NCI-H23 lung
# SK-MEL-2 melanoma = system: SK-MEL-2 melanoma
# SK-MEL-5 melanoma = system: SK-MEL-5 melanoma
# HOP-92 NSCLC = system: HOP-92 NSCLC
# MDA-MB-231 breast = system: MDA-MB-231 breast
# HL-60(TB) leukemia = system: HL-60(TB) leukemia
# OVCAR-5 ovarian = system: OVCAR-5 ovarian
# OVCAR-3 ovarian = system: OVCAR-3 ovarian
# EKVX NSCLC = system: EKVX NSCLC
# DU-145 prostate = system: DU-145 prostate
# M14 melanoma = system: M14 melanoma
# SNB-19 CNS = system: SNB-19 CNS
# LOX IMVI melanoma = system: LOX IMVI melanoma
compound,measurement,setting,value
O=C(CC1(O)C(=O)N(Cc2ccccc2)c2ccc(Br)cc21)c1ccc(C(=O)NCC2CCC3(CC2)OOC2(CCCCC2)OO3)cc1 (stereo unspecified),GI50,MDA-MB-435,647 nM
same,TGI,MDA-MB-435,1930 nM
same,GI50,UACC-62 melanoma,11200 nM
same,TGI,UACC-62 melanoma,> 59000 nM
same,GI50,HCT-116 colon,2080 nM
same,TGI,HCT-116 colon,8180 nM
same,GI50,PC-3 prostate,1730 nM
same,TGI,PC-3 prostate,12500 nM
same,GI50,NCI-H522 lung,214 nM
same,TGI,NCI-H522 lung,556 nM
same,GI50,SF-268 CNS,2030 nM
same,TGI,SF-268 CNS,6740 nM
same,GI50,OVCAR-4 ovarian,3810 nM
same,TGI,OVCAR-4 ovarian,16300 nM
same,GI50,MOLT-4 leukemia,1980 nM
same,TGI,MOLT-4 leukemia,6540 nM
same,GI50,T-47D breast,1300 nM
same,TGI,T-47D breast,6280 nM
same,GI50,SW-620 colon,2890 nM
same,TGI,SW-620 colon,10100 nM
same,GI50,SR leukemia,216 nM
same,TGI,SR leukemia,981 nM
same,GI50,CCRF-CEM leukemia,350 nM
same,TGI,CCRF-CEM leukemia,1110 nM
same,GI50,UO-31 renal,187 nM
same,TGI,UO-31 renal,363 nM
same,GI50,HOP-62 NSCLC,237 nM
same,TGI,HOP-62 NSCLC,619 nM
same,GI50,NCI-H460 lung,488 nM
same,TGI,NCI-H460 lung,1660 nM
same,GI50,786-0 renal,173 nM
same,TGI,786-0 renal,334 nM
same,GI50,ACHN renal,239 nM
same,TGI,ACHN renal,598 nM
same,GI50,HS 578T breast,2930 nM
same,TGI,HS 578T breast,15900 nM
same,GI50,SN12C renal,1160 nM
same,TGI,SN12C renal,3180 nM
same,GI50,SK-OV-3 ovarian,7260 nM
same,TGI,SK-OV-3 ovarian,> 24200 nM
same,GI50,COLO 205 colon,2040 nM
same,TGI,COLO 205 colon,5950 nM
same,GI50,HT29 colon,615 nM
same,TGI,HT29 colon,2060 nM
same,GI50,RXF 393 renal,554 nM
same,TGI,RXF 393 renal,1290 nM
same,GI50,TK-10 renal,350 nM
same,TGI,TK-10 renal,989 nM
same,GI50,K-562 leukemia,1690 nM
same,TGI,K-562 leukemia,8280 nM
same,GI50,UACC-257 melanoma,16100 nM
same,TGI,UACC-257 melanoma,> 100000 nM
same,GI50,SNB-75 CNS,1530 nM
same,TGI,SNB-75 CNS,6020 nM
same,GI50,BT-549 breast,3260 nM
same,TGI,BT-549 breast,20100 nM
same,GI50,MALME-3M melanoma,594 nM
same,TGI,MALME-3M melanoma,2050 nM
same,GI50,RPMI-8226 leukemia,830 nM
same,TGI,RPMI-8226 leukemia,3690 nM
same,GI50,OVCAR-8 ovarian,285 nM
same,TGI,OVCAR-8 ovarian,1010 nM
same,GI50,SF-295 CNS,794 nM
same,TGI,SF-295 CNS,2460 nM
same,GI50,SK-MEL-28 melanoma,17000 nM
same,TGI,SK-MEL-28 melanoma,> 100000 nM
same,GI50,NCI-H226 lung,5060 nM
same,TGI,NCI-H226 lung,19300 nM
same,GI50,A549 NSCLC,224 nM
same,TGI,A549 NSCLC,496 nM
same,GI50,MCF7 breast,2650 nM
same,TGI,MCF7 breast,> 87900 nM
same,GI50,KM12 colon,435 nM
same,TGI,KM12 colon,1700 nM
same,GI50,IGROV1 ovarian,278 nM
same,TGI,IGROV1 ovarian,799 nM
same,GI50,HCT-15 colon,1150 nM
same,TGI,HCT-15 colon,4670 nM
same,GI50,A498 renal,2220 nM
same,TGI,A498 renal,6860 nM
same,GI50,HCC-2998 colon,2190 nM
same,TGI,HCC-2998 colon,5100 nM
same,GI50,CAKI-1 renal,557 nM
same,TGI,CAKI-1 renal,1060 nM
same,GI50,NCI/ADR-RES ovarian,583 nM
same,TGI,NCI/ADR-RES ovarian,1810 nM
same,GI50,SF-539 CNS,322 nM
same,TGI,SF-539 CNS,988 nM
same,GI50,U251 CNS,301 nM
same,TGI,U251 CNS,920 nM
same,GI50,NCI-H23 lung,237 nM
same,TGI,NCI-H23 lung,595 nM
same,GI50,SK-MEL-2 melanoma,3690 nM
same,TGI,SK-MEL-2 melanoma,13200 nM
same,GI50,SK-MEL-5 melanoma,3010 nM
same,TGI,SK-MEL-5 melanoma,10000 nM
same,GI50,HOP-92 NSCLC,213 nM
same,TGI,HOP-92 NSCLC,468 nM
same,GI50,MDA-MB-231 breast,549 nM
same,TGI,MDA-MB-231 breast,2030 nM
same,GI50,HL-60(TB) leukemia,330 nM
same,TGI,HL-60(TB) leukemia,1120 nM
same,GI50,OVCAR-5 ovarian,1580 nM
same,TGI,OVCAR-5 ovarian,15600 nM
same,GI50,OVCAR-3 ovarian,435 nM
same,TGI,OVCAR-3 ovarian,1520 nM
same,GI50,EKVX NSCLC,437 nM
same,TGI,EKVX NSCLC,1590 nM
same,GI50,DU-145 prostate,191 nM
same,TGI,DU-145 prostate,354 nM
same,GI50,M14 melanoma,4310 nM
same,TGI,M14 melanoma,30600 nM
same,GI50,SNB-19 CNS,8130 nM
same,TGI,SNB-19 CNS,> 100000 nM
same,GI50,LOX IMVI melanoma,152 nM
same,TGI,LOX IMVI melanoma,304 nM
